Reference: patent US9457022B2, “Methods and compositions for treating or preventing symptoms of hormonal variations” (priority 2010, dated 2016)
Read-outs that look alike come from different tables or passages of the source.

What was measured:
hot flashes [1] = assay: Dextromethorphan HBr in menopausal women with no breast cancer history; severity and frequency of hot flashes; format: in vivo, human; details: 15 mg in the morning and 15 mg in the evening; summary of Table 1
Description: The dosage given in these test cases was 15 mg in the morning and 15 mg in the evening of Dextromethorphan, e.g., DextromethorphanHBr. The decrease in the symptoms of hormonal variation was noted by assessing the severity and frequency of hot flashes.

[2] = system: hot flashes, night sweats and other menopausal symptoms; details: for Impact on reducing the menopausal symptoms (hot flashes, night sweats): 2009, patient on Tamoxifen, Clonidine given with Vitamin E
Source text: One of ordinary skill in the art would appreciate that this specific example is not intended to limit the scope of the invention.
In September of 1993, a person who had been experiencing severe menstrual cycles required a partial hysterectomy. […] Approximately a year after surgery, they were placed on Cenestin™ (a kind of hormone replacement therapy, i.e., “HRT”).
At this time, the patient began taking dosages of Wellbutrin™ and receiving another hormone replacement therapy of estrogen and testosterone to treat the hot flashes, night sweats and other menopausal symptoms.
In November of 2008, the patient was diagnosed with Stage 2 breast cancer and the HRT was discontinued immediately. Subsequently, the patient underwent a lumpectomy and the removal of fourteen lymph nodes (one tested positive).
In December 2008, the patient went through an intense treatment of chemotherapy which lasted until April 2009. At this time, a less intense chemotherapy treatment was continued until November 2009. The patient also received radiation therapy from April 2009 until June 2009. At the end of the radiation therapy, the patient was started on a regimen of Tamoxifen™.
Clonidine™ is a direct-acting α2 adrenergic agonist that is used to treat several medical conditions. […] Both the Clonidine™ and the Wellbutrin™ were discontinued in June 2009.
It was originally developed for the treatment of epilepsy, and currently, gabapentin is widely used to relieve pain, especially neuropathic pain. […] At this time, the patient was treated with Effexor™ (generic name Venlafaxine), a medication which is used primarily for the treatment of major depression, generalized anxiety disorder, social anxiety disorder, obsessive—compulsive disorder, panic disorder, and menopausal hot flashes in adults.
At this time, the patient began Wellbutrin™ again to treat the hot flashes, night sweats and other menopausal symptoms.
The dosage continued and remained the same for another 5 days.

hot flashes [3] = details: cited from earlier work
hot flashes [4] = details: men; double blind, cross over study; cited from earlier work

## COc1ccc2c(c1)[C@]13CCCC[C@@H]1[C@H](C2)N(C)CC3 [Dextromethorphan HBr]
Hot flashes [1]
  Women who no longer had hot flashes when on Dextromethorphan: four out of the five
[2]; 30 mg per day (15 mg every 12 hours), by the third day
  Hot flashes, night sweats and other menopausal symptoms: totally gone
[2]; 30 mg per day (15 mg every 12 hours), two days after starting
  Occurrence of hot flashes, night sweats and other menopausal symptoms: reduced significantly
[2]; after 8 days of 30 mg per day
  Time to reoccurrence of menopausal symptoms after discontinuation: ≤ 24 h
[2]; continuing Dextromethorphan HBr alone
  Hot flashes, night sweats and menopausal symptoms after Wellbutrin was discontinued: did not reoccur
[2]; human, in vivo
  Time to elimination of symptoms after again commencing treatment: ≤ 24 h

## CNCCC(Oc1ccc(C(F)(F)F)cc1)c1ccccc1 (stereo not drawn) [Fluoxetine]
Hot flashes [3]; 20 mg/day, placebo 36%
  Reduction in hot-flash scores: 50%

## CC/C(=C(\c1ccccc1)c1ccc(OCCN(C)C)cc1)c1ccccc1 [Tamoxifen™, tamoxifen]
[2]; human, in vivo
  Hot flashes, night sweats and other menopausal symptoms since commencing treatment: increased in intensity

## CC(NC(C)(C)C)C(=O)c1cccc(Cl)c1 (stereo not drawn) [Wellbutrin™, bupropian]
[2]
  Impact on reducing the menopausal symptoms (hot flashes, night sweats): no impact
[2]; Wellbutrin together with hormone replacement therapy of estrogen and testosterone, from 2006
  Frequency and intensity of hot flashes, night sweats and other menopausal symptoms (patient report): markedly reduced

## Clc1cccc(Cl)c1N=C1NCCN1 [clonidine]
Hot flashes [4]
  Difference from placebo effect in self-reported hot flash frequency: not statistically significant
[2]
  Impact on reducing the menopausal symptoms (hot flashes, night sweats): no impact
Hot flashes [3]; randomized clinical trials
  Adverse effects (dry mouth, dizziness, blurred vision): common
  Efficacy versus placebo in preventing hot flashes: moderately more efficacious than placebo
Hot flashes [3]; women treated with clonidine
  Decrease of hot flash frequency greater than that seen with placebo: 10-15%

## NCC1(CC(=O)O)CCCCC1 [gabapentin]
[2]
  Impact on reducing the menopausal symptoms (hot flashes, night sweats): no impact
Hot flashes [3]; pilot trials
  Reduction of incidence of hot flashes: 42%-70%

## CC(=O)O[C@]1(C(C)=O)CC[C@H]2[C@@H]3C=C(C)C4=CC(=O)CC[C@]4(C)[C@H]3CC[C@@]21C [megestrol acetate]
Hot flashes [3]; men and women, placebo 20%
  Reduction in self-reported hot flash frequency: ~80%

## COc1ccc(C(CN(C)C)C2(O)CCCCC2)cc1 (stereo not drawn) [venlafaxine]
[2]
  Impact on reducing the menopausal symptoms (hot flashes, night sweats): no impact
Hot flashes [3]; randomized clinical trial, low dose (37.5 mg/day), placebo 27%
  Reduction in hot-flash scores: 37%
Hot flashes [3]; randomized clinical trial, moderate and high doses (75 and 150 mg/day), statistically significant
  Reduction in hot-flash scores: 61%
